{"source": "patent US20030125311A1", "about": "“Compounds capable of binding with the cytoskeleton” (priority 2002, published 2003)", "key": {"[1]": {"system": "rat brain cytosol binding sites of pregnenolone", "assay": "Competition trials for PREG [3H] binding in brain cytosol", "design": "key to R.C.R. 50 (relative competition index): IC50(PREG)/IC50(competitor) ×100; PREG = 100", "settings": "for R.C.R. 50 (relative competition index): PREG = 100, 50% reduction of specific binding of 100 nM PREG [3H], mean±standard error, n=3", "procedure": "(§1) In trials of competition between pregnenolone and different steroids for the binding studied, 0.2 ml of cytosol is incubated with 100 nM of PREG [^3H] and a 1-, 10-, 100-, and 1,000-fold excess of non-radioactive steroid.\nTo study the specificity of the binding of PREG [^3H], different steroids were used.\n(§2) The relative competition index was determined as ratios of the concentrations of the competitor (in the […]) versus PREG causing a reduction of 50% of the specific binding of PREG [^3H]×100 (mean±standard error, n=3)."}, "[2]": {"system": "Cytosol (Rat)", "assay": "Index of competition with pregnenolone, cytosol (rat)", "format": "binding", "settings": "Pregnenolone = 100%", "procedure": "as §1"}, "[3]": {"system": "MT (Beef)", "assay": "Index of competition with pregnenolone, MT (beef)", "format": "binding", "settings": "Pregnenolone = 100%", "procedure": "as §1"}, "[4]": {"biological_target": "T1, microtubules reconstituted with purified tubulin and MAP2 (Bos taurus, UniProt A0A3Q1NAK9)", "T1 construct": "from tissue; host or cells: calf brain", "T1 sequence (A0A3Q1NAK9 1-1867)": "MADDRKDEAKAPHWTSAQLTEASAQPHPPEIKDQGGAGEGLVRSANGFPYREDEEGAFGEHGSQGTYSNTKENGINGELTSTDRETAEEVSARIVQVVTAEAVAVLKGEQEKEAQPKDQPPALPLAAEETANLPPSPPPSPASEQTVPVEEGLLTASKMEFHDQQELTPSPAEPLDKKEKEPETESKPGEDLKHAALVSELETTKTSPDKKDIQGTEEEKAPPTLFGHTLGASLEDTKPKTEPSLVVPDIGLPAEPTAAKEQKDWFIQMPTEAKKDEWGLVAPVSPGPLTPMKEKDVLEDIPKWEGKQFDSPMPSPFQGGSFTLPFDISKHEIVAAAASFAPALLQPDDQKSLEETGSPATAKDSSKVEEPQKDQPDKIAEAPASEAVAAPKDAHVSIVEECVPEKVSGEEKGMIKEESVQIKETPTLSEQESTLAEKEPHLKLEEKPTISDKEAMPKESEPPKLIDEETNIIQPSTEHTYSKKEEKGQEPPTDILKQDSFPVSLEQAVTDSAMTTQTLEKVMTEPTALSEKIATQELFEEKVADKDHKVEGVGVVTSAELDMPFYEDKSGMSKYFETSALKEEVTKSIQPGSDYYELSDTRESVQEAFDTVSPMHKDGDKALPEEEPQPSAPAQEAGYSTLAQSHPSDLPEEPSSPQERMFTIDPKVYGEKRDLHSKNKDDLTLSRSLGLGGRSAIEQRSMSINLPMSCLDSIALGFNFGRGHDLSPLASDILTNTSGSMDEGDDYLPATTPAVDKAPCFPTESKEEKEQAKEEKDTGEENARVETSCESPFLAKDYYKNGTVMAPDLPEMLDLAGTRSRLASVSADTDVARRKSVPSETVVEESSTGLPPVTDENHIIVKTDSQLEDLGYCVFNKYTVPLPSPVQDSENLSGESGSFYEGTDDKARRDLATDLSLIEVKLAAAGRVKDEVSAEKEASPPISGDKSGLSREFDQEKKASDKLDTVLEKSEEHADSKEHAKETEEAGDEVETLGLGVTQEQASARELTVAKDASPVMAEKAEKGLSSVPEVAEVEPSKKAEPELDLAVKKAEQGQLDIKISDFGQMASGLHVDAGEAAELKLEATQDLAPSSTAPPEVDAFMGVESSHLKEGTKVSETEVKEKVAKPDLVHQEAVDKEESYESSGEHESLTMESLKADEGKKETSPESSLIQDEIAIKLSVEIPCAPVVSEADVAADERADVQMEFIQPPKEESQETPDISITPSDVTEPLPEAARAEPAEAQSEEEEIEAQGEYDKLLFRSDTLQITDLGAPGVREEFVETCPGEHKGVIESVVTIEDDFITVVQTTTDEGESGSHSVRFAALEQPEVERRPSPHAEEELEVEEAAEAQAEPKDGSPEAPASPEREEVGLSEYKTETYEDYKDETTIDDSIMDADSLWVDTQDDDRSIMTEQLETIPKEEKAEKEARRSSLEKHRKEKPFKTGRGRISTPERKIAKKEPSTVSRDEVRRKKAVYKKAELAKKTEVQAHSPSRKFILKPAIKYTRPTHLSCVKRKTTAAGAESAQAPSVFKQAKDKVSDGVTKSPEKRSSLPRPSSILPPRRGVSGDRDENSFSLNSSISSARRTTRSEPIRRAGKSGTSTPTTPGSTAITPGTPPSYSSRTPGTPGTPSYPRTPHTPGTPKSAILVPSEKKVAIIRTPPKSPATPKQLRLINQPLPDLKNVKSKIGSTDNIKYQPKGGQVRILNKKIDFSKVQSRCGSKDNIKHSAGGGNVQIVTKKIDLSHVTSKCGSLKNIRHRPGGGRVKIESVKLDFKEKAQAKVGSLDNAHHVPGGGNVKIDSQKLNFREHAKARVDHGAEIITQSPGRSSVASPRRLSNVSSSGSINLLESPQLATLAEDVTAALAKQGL", "assay": "Kinetics of assembling of microtubules (turbidity at 345 nm)", "format": "biochemical, calf", "settings": "for effect on assembling of microtubules (absorbance at 345 nm): 500 nM steroid, 37° C., 15 min", "procedure": "This assembling is measured by monitoring the increases of turbidity with a UVICON® spectrophotometer (Kontron Instruments, Montigny-le-Bretonneux, France)\nThe microtubules are reconstituted in vitro with purified tubulin (1 mg/ml) and MAP2 (0.05 mg/ml) in buffer A.\nThe increase of absorbance is measured at 345 nm, at 37° C. and recorded every 30 sec. for 15 min.\nThe assembling of microtubules is measured either in the absence of steroids (-⋄-); or in the presence of 500 nM of steroid: PREG (- -), progesterone (-X-), estradiol (-V-); or in the presence, at the same time, of PREG and progesterone (-∘-) or of PREG and estradiol (-Δ-) each at a concentration of 500 nM."}, "[5]": {"biological_target": "T2, MAP-2c + Tubuline (Homo sapiens, UniProt P11137)", "T2 sequence (P11137 1-471 isoform P11137-2)": "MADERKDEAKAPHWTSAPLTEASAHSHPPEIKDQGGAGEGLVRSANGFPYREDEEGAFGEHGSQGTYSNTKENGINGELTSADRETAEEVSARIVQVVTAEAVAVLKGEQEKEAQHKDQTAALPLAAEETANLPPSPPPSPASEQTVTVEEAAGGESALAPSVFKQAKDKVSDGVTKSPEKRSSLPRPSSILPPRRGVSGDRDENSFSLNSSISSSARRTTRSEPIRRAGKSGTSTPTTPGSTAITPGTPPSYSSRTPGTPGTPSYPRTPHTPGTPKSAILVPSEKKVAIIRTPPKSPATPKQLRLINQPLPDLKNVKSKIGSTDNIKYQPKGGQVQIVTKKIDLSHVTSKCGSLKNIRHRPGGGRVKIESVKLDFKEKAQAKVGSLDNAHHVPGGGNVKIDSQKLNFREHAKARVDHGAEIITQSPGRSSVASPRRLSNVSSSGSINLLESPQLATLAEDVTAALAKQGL", "assay": "Index of competition with pregnenolone, MAP-2c + tubulin", "format": "binding", "settings": "Pregnenolone = 100%", "procedure": "as §1"}, "[6]": {"biological_target": "fetal microtubules (Rattus norvegicus, UniProt P15146)", "sequence (P15146 whole entry)": "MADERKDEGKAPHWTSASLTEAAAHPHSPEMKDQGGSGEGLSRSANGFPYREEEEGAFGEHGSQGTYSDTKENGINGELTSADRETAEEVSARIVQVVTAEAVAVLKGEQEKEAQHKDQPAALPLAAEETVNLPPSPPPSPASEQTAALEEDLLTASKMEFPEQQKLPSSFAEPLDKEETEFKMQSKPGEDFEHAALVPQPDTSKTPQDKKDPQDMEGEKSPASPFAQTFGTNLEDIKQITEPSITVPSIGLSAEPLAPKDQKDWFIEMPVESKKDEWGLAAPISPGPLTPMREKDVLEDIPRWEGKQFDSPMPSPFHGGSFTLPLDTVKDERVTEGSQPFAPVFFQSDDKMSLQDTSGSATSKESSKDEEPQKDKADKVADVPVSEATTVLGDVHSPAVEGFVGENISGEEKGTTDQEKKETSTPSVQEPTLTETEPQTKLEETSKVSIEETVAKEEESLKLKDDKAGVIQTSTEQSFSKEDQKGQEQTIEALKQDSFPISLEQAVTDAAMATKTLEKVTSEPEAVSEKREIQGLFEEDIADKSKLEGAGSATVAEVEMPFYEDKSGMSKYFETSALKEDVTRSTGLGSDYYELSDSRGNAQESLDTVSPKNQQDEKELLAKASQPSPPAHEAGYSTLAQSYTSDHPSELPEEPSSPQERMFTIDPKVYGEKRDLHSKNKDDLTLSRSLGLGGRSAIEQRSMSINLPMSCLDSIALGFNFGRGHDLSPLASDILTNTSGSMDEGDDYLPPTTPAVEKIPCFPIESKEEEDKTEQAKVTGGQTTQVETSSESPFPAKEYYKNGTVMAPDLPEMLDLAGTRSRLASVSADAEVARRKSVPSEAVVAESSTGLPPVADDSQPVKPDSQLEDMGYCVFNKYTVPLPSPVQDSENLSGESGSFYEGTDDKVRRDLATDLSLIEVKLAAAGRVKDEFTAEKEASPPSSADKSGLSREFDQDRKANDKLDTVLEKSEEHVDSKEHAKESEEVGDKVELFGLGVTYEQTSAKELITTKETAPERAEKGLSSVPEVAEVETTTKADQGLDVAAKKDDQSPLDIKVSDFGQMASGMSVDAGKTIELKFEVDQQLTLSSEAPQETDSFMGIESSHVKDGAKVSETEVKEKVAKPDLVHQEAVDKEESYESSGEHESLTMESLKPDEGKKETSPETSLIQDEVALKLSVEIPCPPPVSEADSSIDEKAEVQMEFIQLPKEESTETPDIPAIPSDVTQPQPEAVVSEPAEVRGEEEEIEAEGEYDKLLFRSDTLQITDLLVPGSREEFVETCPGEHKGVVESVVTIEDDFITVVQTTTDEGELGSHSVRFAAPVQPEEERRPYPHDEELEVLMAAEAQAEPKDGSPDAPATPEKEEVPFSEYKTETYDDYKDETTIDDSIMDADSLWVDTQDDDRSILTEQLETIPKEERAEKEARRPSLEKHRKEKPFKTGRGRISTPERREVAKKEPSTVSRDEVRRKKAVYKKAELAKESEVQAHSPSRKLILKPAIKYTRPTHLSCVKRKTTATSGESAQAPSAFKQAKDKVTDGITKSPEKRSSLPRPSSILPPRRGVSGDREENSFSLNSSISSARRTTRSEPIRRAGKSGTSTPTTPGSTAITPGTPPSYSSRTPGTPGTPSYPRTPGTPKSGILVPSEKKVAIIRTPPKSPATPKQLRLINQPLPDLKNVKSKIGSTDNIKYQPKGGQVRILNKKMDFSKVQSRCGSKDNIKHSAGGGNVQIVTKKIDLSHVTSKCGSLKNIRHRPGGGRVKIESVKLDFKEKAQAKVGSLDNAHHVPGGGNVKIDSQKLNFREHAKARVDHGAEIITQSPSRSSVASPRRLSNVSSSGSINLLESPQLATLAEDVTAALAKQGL", "assay": "Competition for PREG [3H] binding to fetal microtubules (RCR)", "settings": "PREG = 100", "procedure": "as §1\nThe microtubules are prepared starting from calf brain or adult or fetal rat brain according to an assembly/disassembly method, as a function of the temperature, in vitro (12).\nas §2\nThe binding of PREG [^3H] to microtubules prepared by polymerization/depolymerization cycles was determined."}, "[7]": {"biological_target": "MAP2-tubulin copolymers (Bos taurus, UniProt A0A3Q1NAK9)", "sequence (A0A3Q1NAK9 1-1867)": "as the sequence (A0A3Q1NAK9 1-1867) above", "assay": "Competition for PREG [3H] binding to MAP2-tubulin copolymers (RCR)", "design": "species or system calf", "settings": "for RCR: MAP2-tubulin copolymers, PREG = 100", "procedure": "as §1, §2\nPurified calf brain tubulin (90 μg/ml), MAP2 (45 μg/ml) or tau protein (25 μg/ml) is incubated with 100 nM of PREG [^3H], with or without a 1,000-fold excess of non-radioactive PREG."}, "[8]": {"system": "Cytosol (piglet)", "assay": "Index of competition with pregnenolone, cytosol (piglet)", "format": "binding", "settings": "Pregnenolone = 100%; cell marked piglet", "procedure": "as §1"}, "[9]": {"system": "binding sites of PREG [3H] in brain cytosol", "assay": "Effects of hydrolytic enzymes on the binding of PREG [3H] in cytosol", "design": "species or system rat", "procedure": "Proteinase K (Merck, Darmstadt, Germany) and Pronase® are dissolved at 1 mg/ml in TNM buffer containing 10 mM of Tris, 0.1M of NaCl, 3 mM of MgCl2 (pH 7.4). Deoxyribonuclease I and ribonuclease A are products of Sigma-Aldrich and are respectively adjusted to 100 IU/ml and 5 IU/ml. Phospholipase A2 (Roche Molecular Biochemicals) is diluted to 20 IU/ml in TNM.\n1 ml of brain cytosol is incubated with 0.2 ml of an enzyme solution at 37° C. for 30 min. The binding activity is studied of samples (0.2 ml) which had undergone the enzyme treatment or control samples diluted with buffer only.\nTo study the effects of hydrolytic enzymes on the binding of PREG [^3H], samples of 1 ml of cytosol incubated with 0.2 ml of an enzyme solution at 37° C. for 30 min were used. The results obtained, expressed as % of the control incubation (cytosol diluted in a buffer) are reported in Table 1 (mean±standard error, n=3)."}}, "note": "Counter-ions that a name gives are not always drawn."}
{"compound": "[2H]OC1CCC2(C)C(=CCC3C2CCC2(C)C3CCC2[C@H](C)O)C1", "note": "(stereo partly drawn) [Δ5-pregnene-3β.20α-diol, Δ5-pregnene-3β, 20α-diol]", "values": [{"measurement": "competition for the binding of PREG [3H] (in words)", "setting": "[1]", "result": "best competitors"}, {"measurement": "R.C.R. 50 (relative competition index)", "setting": "[1]", "result": "68.4 ± 15.3"}, {"measurement": "Index of Competition, Cytosol (Rat)", "setting": "[2]", "result": 87, "unit": "%"}, {"measurement": "Index of Competition, MT (Beef)", "setting": "[3]", "result": "100 (beef) %"}]}
{"compound": "C[C@]12CC[C@@H]3c4ccc(O)cc4CC[C@H]3[C@@H]1CC[C@@H]2O", "note": "[Estradiol]", "values": [{"measurement": "effect on assembling of microtubules (absorbance at 345 nm)", "setting": "[4]", "result": "inactive"}]}
{"compound": "CC(=O)C1CC=C2C3CC=C4CC(O)CCC4(C)C3CCC21C", "note": "(stereo not drawn) [3β-OH-5, 14 Preqnadiene-20-one]", "values": [{"measurement": "Index of Competition, Cytosol (Rat)", "setting": "[2]", "result": 102, "unit": "%"}, {"measurement": "Index of Competition, MT (Beef)", "setting": "[3]", "result": 95, "unit": "%"}]}
{"compound": "CC(=O)C1CCC2C3CC=C4CC(OS(=O)(=O)c5ccc(C)cc5)CCC4(C)C3CCC12C", "note": "(stereo not drawn) [PREG Tosylate]", "values": [{"measurement": "Index of Competition, Cytosol (Rat)", "setting": "[2]", "result": 107, "unit": "%"}, {"measurement": "Index of Competition, MT (Beef)", "setting": "[3]", "result": 121, "unit": "%"}, {"measurement": "Index of Competition, MAP-2c + Tubuline", "setting": "[5]", "result": 129, "unit": "%"}]}
{"compound": "CC(=O)[C@H]1CC[C@H]2[C@@H]3CCC4=CC(=O)CC[C@]4(C)[C@H]3CC[C@]12C", "note": "[Progesterone]", "values": [{"measurement": "competition for the binding of PREG [3H] (in words)", "setting": "[1]", "result": "best competitors"}, {"measurement": "R.C.R. 50 (relative competition index)", "setting": "[1]", "result": "72.1 ± 17.7"}, {"measurement": "RCR", "setting": "[6]", "result": 72.1}, {"measurement": "binding to MAP2 (in words)", "setting": "[7]", "result": "affinity for MAP2 of the same order as that of PREG"}, {"measurement": "RCR", "setting": "[7]", "result": 81.3}, {"measurement": "effect on assembling of microtubules (absorbance at 345 nm)", "setting": "[4]", "result": "without effect"}, {"measurement": "effect on PREG-stimulated assembly of microtubules", "setting": "[4]; with PREG, each at 500 nM", "result": "counteracts the stimulative effect of PREG on the assembly of microtubules"}]}
{"compound": "CC(=O)C1[C@H](C)CC2C3CC=C4CC(O)CCC4(C)C3CCC21C", "note": "(stereo partly drawn) [PREG-16a-methyl]", "values": [{"measurement": "Index of Competition, Cytosol (Rat)", "setting": "[2]", "result": 80, "unit": "%"}, {"measurement": "Index of Competition, MT (Beef)", "setting": "[3]", "result": 88, "unit": "%"}]}
{"compound": "[2H]OC1CCC2(C)C(=CCC3C2CCC2(C)C3CC(C)C2C(C)=O)C1", "note": "(stereo not drawn) [PREG-16β-methyl]", "values": [{"measurement": "Index of Competition, Cytosol (Rat)", "setting": "[2]", "result": 63, "unit": "%"}, {"measurement": "Index of Competition, MT (Beef)", "setting": "[3]", "result": "83 (beef) %"}, {"measurement": "Index of Competition, MAP-2c + Tubuline", "setting": "[5]", "result": 97, "unit": "%"}]}
{"compound": "CC(=O)C1CCC2C3CC=C4CC(OS(=O)(=O)O)CCC4(C)C3CCC12C", "note": "(stereo not drawn) [Preqnenolone sulfate, pregnenolone sulfate]", "values": [{"measurement": "competition for the binding of PREG [3H] (in words)", "setting": "[1]", "result": "best competitors"}, {"measurement": "R.C.R. 50 (relative competition index)", "setting": "[1]", "result": "78.8 ± 7.0"}, {"measurement": "RCR", "setting": "[6]", "result": 78.8}, {"measurement": "RCR", "setting": "[7]", "result": 91.5}, {"measurement": "effect on assembling of microtubules (absorbance at 345 nm)", "setting": "[4]", "result": "effects similar to those of progesterone"}]}
{"compound": "CC(=O)[C@@]1(O)CC[C@H]2[C@@H]3CCC4=CC(=O)CC[C@]4(C)[C@H]3CC[C@@]21C", "note": "[17α-hydroxy-progesterone]", "values": [{"measurement": "R.C.R. 50 (relative competition index)", "setting": "[1]", "result": 0.79}]}
{"compound": "CC(C)CCC[C@@H](C)[C@H]1CC[C@H]2[C@@H]3CC=C4C[C@@H](O)CC[C@]4(C)[C@H]3CC[C@]12C", "note": "[Cholesterol]", "values": [{"measurement": "R.C.R. 50 (relative competition index)", "setting": "[1]", "result": 0.02}]}
{"compound": "C[C@]12CC[C@H](O)CC1=CC[C@@H]1[C@@H]2CC[C@]2(C)C(=O)CC[C@@H]12", "note": "[Dehydroepiandrosterone]", "values": [{"measurement": "RCR", "setting": "[7]", "result": 2.3}]}
{"compound": "C[C@H](O)C1CCC2C3CCC4CC(O)CCC4(C)C3CCC21C", "note": "(stereo partly drawn) [5a-Pregnama 3β, 20a-diol]", "values": [{"measurement": "Index of Competition, Cytosol (Rat)", "setting": "[2]", "result": 100, "unit": "%"}, {"measurement": "Index of Competition, MT (Beef)", "setting": "[3]", "result": 96, "unit": "%"}]}
{"compound": "C[C@]12CC[C@H]3[C@@H](CCC4=CC(=O)CC[C@@]43C)[C@@H]1CC[C@@H]2O", "note": "[Testosterone, reference compound]", "values": [{"measurement": "RCR", "setting": "[6]", "result": 5.6}, {"measurement": "RCR", "setting": "[7]", "result": 2.3}]}
{"compound": "CC(=O)[C@H]1CC[C@H]2[C@@H]3CC[C@H]4C[C@@H](O)CC[C@]4(C)[C@H]3CC[C@]12C", "note": "[3β-hydroxy-5α-pregnane 20-one, 3β-hydroxy-5α-pregnane-20-one]", "values": [{"measurement": "competition for the binding of PREG [3H] (in words)", "setting": "[1]", "result": "effective competitor"}, {"measurement": "times less active than PREG as competitor", "setting": "[1]", "result": 5, "unit": "times"}, {"measurement": "R.C.R. 50 (relative competition index)", "setting": "[1]", "result": "18.4 ± 4.0"}]}
{"compound": "CC(=O)OCC(=O)[C@H]1CC[C@H]2[C@@H]3CC=C4C[C@@H](O)CC[C@]4(C)[C@H]3CC[C@]12C", "note": "[3β-OH-Pregna-5-ene-20-one-21-acetoxy]", "values": [{"measurement": "Index of Competition, Cytosol (piglet)", "setting": "[8]", "result": "80 (piglet) %"}, {"measurement": "Index of Competition, MT (Beef)", "setting": "[3]", "result": 107, "unit": "%"}]}
{"compound": "CC(=O)[C@@]1(O)CC[C@H]2[C@@H]3CC=C4C[C@@H](O)CC[C@]4(C)[C@H]3CC[C@@]21C", "note": "[17α-hydroxy-pregnenolone]", "values": [{"measurement": "R.C.R. 50 (relative competition index)", "setting": "[1]", "result": 0.85}]}
{"compound": "Phospholipase A2 [reference compound]", "values": [{"measurement": "% of Control (binding of PREG [3H])", "setting": "[9]; cytosol incubated with enzyme at 37° C. for 30 min, mean±standard error, n=3", "result": "85.0 ± 7.3", "unit": "%"}, {"measurement": "effect on binding sites of PREG [3H] (in words)", "setting": "[9]; enzyme treatment of cytosol", "result": "no significant effect"}]}
